Test [1] has as its system A2780 ovarian cells. The test can be described thus: A2780 ovarian cell proliferation assay in lipid reduced medium, without palmitate (MTT). The format is cell-based. The conditions noted are these: Homo sapiens, A2780, 96 h; read-out: pIC50 A2780 Ovarian Cell, Without Palmitate (converted).
Test [2] has as its target T1, hFASN enzyme (full length) (Homo sapiens, UniProt P49327).
T1 construct: 10 μL hFASN enzyme (full length, 300 ng, purified in house); made in house
Nature of the test: Fatty Acid Synthase (FASN) inhibition scintillation proximity assay. Format: biochemical. The conditions noted are these: for inhibition at 10 µM: read-out: Human FASN % inhibition @ 10 μM, 10 μM test compound; for IC50: read-out: Human FASN pIC50 (converted). Summed up:
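Full-length in-house purified enzyme (300 ng) was tested in 100 mM KH2PO4 pH 7.5, 1 mM DTT with ³H-acetyl-CoA and malonyl-CoA as substrates; compounds ranged 0.01–30 μM. Reactions were stopped with streptavidin imaging beads, read by LEADseeker at 610 nm, and fitted to a 4-parameter logistic curve.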

Test [3] concerns A2780 ovarian cells. The test can be described thus: A2780 ovarian cell proliferation assay in lipid reduced medium, with palmitate (MTT). Format: cell-based. The conditions noted are these: Homo sapiens, A2780, 96 h; read-out: pIC50 A2780 Ovarian Cell, With Palmitate (converted). Summed up: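 Seeded cells were switched next day to lipid-reduced serum, exposed to compound and 25 μM palmitate complexed with fatty-acid-free BSA, and incubated 96 h. Proliferation was then determined by MTT absorbance at 544 nm, with a best-fit curve of signal against concentration.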

Molecules are shown by their SMILES.

T1 sequence (P49327 whole entry): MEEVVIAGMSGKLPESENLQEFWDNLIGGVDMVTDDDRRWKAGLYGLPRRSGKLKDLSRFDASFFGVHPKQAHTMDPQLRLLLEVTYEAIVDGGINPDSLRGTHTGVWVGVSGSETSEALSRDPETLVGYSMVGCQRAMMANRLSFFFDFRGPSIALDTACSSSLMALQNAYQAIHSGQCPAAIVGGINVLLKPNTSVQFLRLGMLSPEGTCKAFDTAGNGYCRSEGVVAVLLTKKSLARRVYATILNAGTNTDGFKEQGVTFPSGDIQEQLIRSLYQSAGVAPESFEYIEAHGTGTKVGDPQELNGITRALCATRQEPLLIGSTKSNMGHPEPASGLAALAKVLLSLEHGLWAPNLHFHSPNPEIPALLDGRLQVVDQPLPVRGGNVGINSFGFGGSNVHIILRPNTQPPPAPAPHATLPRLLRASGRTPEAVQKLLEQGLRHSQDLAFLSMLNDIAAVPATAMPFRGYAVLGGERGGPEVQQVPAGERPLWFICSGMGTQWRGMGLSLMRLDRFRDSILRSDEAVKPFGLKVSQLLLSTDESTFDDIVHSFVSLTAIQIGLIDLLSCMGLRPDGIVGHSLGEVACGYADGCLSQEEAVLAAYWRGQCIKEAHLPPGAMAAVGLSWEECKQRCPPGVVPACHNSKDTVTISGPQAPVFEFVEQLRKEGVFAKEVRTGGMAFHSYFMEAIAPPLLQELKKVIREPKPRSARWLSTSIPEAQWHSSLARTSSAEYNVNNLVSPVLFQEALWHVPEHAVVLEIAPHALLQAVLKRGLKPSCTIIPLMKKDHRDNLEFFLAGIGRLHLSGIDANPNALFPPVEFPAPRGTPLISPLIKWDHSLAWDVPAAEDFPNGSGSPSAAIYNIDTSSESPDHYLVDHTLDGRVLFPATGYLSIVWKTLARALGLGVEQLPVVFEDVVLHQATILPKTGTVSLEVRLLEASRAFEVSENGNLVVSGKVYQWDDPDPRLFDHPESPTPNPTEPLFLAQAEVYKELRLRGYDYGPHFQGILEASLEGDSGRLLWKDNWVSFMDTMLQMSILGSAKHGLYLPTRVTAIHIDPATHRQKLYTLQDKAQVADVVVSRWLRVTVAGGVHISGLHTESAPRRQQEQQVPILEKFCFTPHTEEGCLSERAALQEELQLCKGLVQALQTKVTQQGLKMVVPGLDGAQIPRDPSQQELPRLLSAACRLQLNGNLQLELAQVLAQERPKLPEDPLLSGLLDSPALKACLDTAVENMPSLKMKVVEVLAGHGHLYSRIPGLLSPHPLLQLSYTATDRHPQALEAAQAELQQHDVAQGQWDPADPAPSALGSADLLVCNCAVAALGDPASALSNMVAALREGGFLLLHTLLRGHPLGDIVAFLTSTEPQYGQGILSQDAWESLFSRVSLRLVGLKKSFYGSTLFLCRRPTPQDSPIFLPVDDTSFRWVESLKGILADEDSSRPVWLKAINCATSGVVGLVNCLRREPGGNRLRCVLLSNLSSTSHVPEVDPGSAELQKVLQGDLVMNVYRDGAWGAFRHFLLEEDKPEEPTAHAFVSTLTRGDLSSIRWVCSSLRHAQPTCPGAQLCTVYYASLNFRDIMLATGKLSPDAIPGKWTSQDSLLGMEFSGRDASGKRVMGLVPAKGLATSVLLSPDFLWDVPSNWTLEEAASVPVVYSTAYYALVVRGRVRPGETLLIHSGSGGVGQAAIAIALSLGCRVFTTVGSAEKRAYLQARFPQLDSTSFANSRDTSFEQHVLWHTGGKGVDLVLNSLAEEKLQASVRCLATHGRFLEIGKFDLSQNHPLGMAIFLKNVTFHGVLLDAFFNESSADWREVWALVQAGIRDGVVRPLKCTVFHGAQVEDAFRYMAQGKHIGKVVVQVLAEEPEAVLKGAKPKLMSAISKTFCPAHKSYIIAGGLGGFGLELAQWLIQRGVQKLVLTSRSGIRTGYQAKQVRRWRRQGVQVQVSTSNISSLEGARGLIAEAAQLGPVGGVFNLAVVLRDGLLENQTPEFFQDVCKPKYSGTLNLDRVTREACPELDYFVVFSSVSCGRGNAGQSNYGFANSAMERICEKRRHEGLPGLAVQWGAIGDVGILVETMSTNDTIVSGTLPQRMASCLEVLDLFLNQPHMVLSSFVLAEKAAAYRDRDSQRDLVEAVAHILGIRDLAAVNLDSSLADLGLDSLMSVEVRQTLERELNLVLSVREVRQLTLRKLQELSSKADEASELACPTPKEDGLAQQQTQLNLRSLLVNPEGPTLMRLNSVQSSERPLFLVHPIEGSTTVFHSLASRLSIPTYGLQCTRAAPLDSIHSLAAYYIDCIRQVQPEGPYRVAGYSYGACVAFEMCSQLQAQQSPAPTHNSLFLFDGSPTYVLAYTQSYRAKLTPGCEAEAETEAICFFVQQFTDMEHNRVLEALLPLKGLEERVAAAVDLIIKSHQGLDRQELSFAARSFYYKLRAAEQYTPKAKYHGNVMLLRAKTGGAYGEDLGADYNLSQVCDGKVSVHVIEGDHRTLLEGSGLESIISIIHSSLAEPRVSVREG

On to `O=C(C1CC1)N1CC(CN2C(=O)C3(CC3)N=C2c2ccc(-c3ccc4nncn4c3)cc2)C1` [compound 539, 6-{[1-(Cyclopropylcarbonyl)azetidin-3-yl]methyl}-5-(4-[1,2,4]triazolo[4,3-a]pyridin-6-ylphenyl)-4,6-diazaspiro[2.4]hept-4-en-7-one], for which the IC50 in test [1] was over 10 µM; in test [2], about 6.31 µM; in test [3], over 10 µM. Moreover, in test [2], the inhibition at 10 µM came to 54%.

Turning to `O=C(C1CC1)N1CC(CN2C(=O)C3(CC3)N=C2c2ccc(-c3ccc4ccc(Cl)nc4c3)cc2)C1` [compound 540, 5-[4-(2-Chloroquinolin-7-yl)phenyl]-6-{[1-(cyclopropylcarbonyl)azetidin-3-yl]methyl}-4,6-diazaspiro[2.4]hept-4-en-7-one], the figures for the IC50 in test [1], in test [2] and in test [3] were 4.47 µM, 5.01 µM and 9.33 µM, respectively. Besides, the inhibition at 10 µM in test [2] was determined as 64%.

In the case of `O=C(C1CC1)N1CC(CN2C(=O)C3(CC3)N=C2c2ccc(-c3ccc4nn(CCO)cc4c3)cc2)C1` [compound 549, 6-{[1-(Cyclopropylcarbonyl)azetidin-3-yl]methyl}-5-{4-[2-(2-hydroxyethyl)-2H-indazol-5-yl]phenyl}-4,6-diazaspiro[2.4]hept-4-en-7-one], the IC50 was 3.8 µM in test [1], 1.78 µM in test [2] and over 10 µM in test [3]. Moreover, the inhibition at 10 µM in test [2] was found to be 83%.

Take `CC(C)n1ncc2ccc(-c3ccc(C4=NC5(CC5)C(=O)N4CC4CN(C(=O)C5CC5)C4)cc3)cc21` [compound 550, 6-{[1-(Cyclopropylcarbonyl)azetidin-3-yl]methyl}-5-{4-[1-(1-methylethyl)-1H-indazol-6-yl]phenyl}-4,6-diazaspiro[2.4]hept-4-en-7-one]: the IC50 in test [1] was 3.47 µM; in test [2], 1.82 µM; in test [3], about 10 µM. Further, the inhibition at 10 µM in test [2] was 80%.

Take `O=C(C1CC1)N1CC(CN2C(=O)C3(CC3)N=C2c2ccc(-c3cc4cnn(CCO)c4cc3F)cc2)C1` [compound 552, 6-{[1-(Cyclopropylcarbonyl)azetidin-3-yl]methyl}-5-{4-[6-fluoro-1-(2-hydroxyethyl)-1H-indazol-5-yl]phenyl}-4,6-diazaspiro[2.4]hep-t-4-en-7-one]: the IC50 was 1.7 µM in test [1], 4.9 µM in test [2] and over 10 µM in test [3]. Further, in test [2], the inhibition at 10 µM turned out to be 66%.

`O=C(C1CC1)N1CC(CN2C(=O)C3(CC3)N=C2c2ccc(-c3cc4cn(CCO)nc4cc3F)cc2)C1` [compound 553, 6-{[1-(Cyclopropylcarbonyl)azetidin-3-yl]methyl}-5-{4-[6-fluoro-2-(2-hydroxyethyl)-2H-indazol-5-yl]phenyl}-4,6-diazaspiro[2.4]hept-4-en-7-one]: the IC50 in test [1] is 2.75 µM; in test [2] it was 1.35 µM; in test [3], over 10 µM. Further, in test [2], the inhibition at 10 µM was determined as 85%.

`Cc1cc2ccc(-c3ccc(C4=NC5(CC5)C(=O)N4CC4CN(C(=O)C5CC5)C4)cc3)cc2nc1Cl` [compound 555, 5-[4-(2-Chloro-3-methylquinolin-7-yl)phenyl]-6-{[1-(cyclopropylcarbonyl)azetidin-3-yl]methyl}-4,6-diazaspiro[2.4]hept-4-en-7-one]: the IC50 is about 5.13 µM in test [1], 1.86 µM in test [2] and over 10 µM in test [3]. Moreover, the inhibition at 10 µM in test [2] was determined as 75%.

For the compound `O=C(C1CC1)N1CC(CN2C(=O)C3(CC3)N=C2c2ccc(-c3ccc4c(cnn4CCO)c3)cc2)C1` [compound 556, 6-{[1-(Cyclopropylcarbonyl)azetidin-3-yl]methyl}-5-{4-[1-(2-hydroxyethyl)-1H-indazol-5-yl]phenyl}-4,6-diazaspiro[2.4]hept-4-en-7-one], the IC50 in test [1] was 5.89 µM; in test [2], 5.25 µM; in test [3], over 10 µM. Besides, the inhibition at 10 µM in test [2] was found to be 61%.

For the compound `Cc1cc(Cl)nc2cc(-c3ccc(C4=NC5(CC5)C(=O)N4CC4CN(C(=O)C5CC5)C4)cc3)ccc12` [compound 559, 5-[4-(2-Chloro-4-methylquinolin-7-yl)phenyl]-6-{[1-(cyclopropylcarbonyl)azetidin-3-yl]methyl}-4,6-diazaspiro[2.4]hept-4-en-7-one], the IC50 is 9.33 µM in test [1], 6.03 µM in test [2] and over 10 µM in test [3]. The inhibition at 10 µM in test [2] came out at 59%.

On to `O=C(C1CC1)N1CC(CN2C(=O)C3(CC3)N=C2c2ccc(-c3cnc4c(F)cccc4c3)cc2)C1` [compound 560, 6-{[1-(Cyclopropylcarbonyl)azetidin-3-yl]methyl}-5-[4-(8-fluoroquinolin-3-yl)phenyl]-4,6-diazaspiro[2.4]hept-4-en-7-one], for which the IC50 in test [1] was about 7.59 µM; in test [2], 3.72 µM; in test [3], over 10 µM. Also, the inhibition at 10 µM in test [2] turned out to be 68%.

Regarding `Cc1ccc2ccc(-c3ccc(C4=NC5(CC5)C(=O)N4CC4CN(C(=O)C5CC5)C4)cc3)c(F)c2n1` [compound 561, 6-{[1-(Cyclopropylcarbonyl)azetidin-3-yl]methyl}-5-[4-(8-fluoro-2-methylquinolin-7-yl)phenyl]-4,6-diazaspiro[2.4]hept-4-en-7-one], the IC50 was over 10 µM in test [1], about 7.24 µM in test [2] and over 10 µM in test [3]. For the same compound, the inhibition at 10 µM in test [2] came out at 56%.

For `O=C(C1CC1)N1CC(CN2C(=O)C3(CC3)N=C2c2ccc(-c3ccc4c(Cl)ccnc4c3)cc2)C1` [compound 563, 5-[4-(4-Chloroquinolin-7-yl)phenyl]-6-{[1-(cyclopropylcarbonyl)azetidin-3-yl]methyl}-4,6-diazaspiro[2.4]hept-4-en-7-one], the IC50 was 3.16 µM in test [1], 0.631 µM in test [2] and over 10 µM in test [3]. Further, in test [2], the inhibition at 10 µM was 88%.

Consider `Cc1cc(-c2ccc3c(cnn3C)c2)ccc1C1=NC2(CC2)C(=O)N1CC1CN(C(=O)C2(N)CC2)C1` [compound 564, 6-({1-[(1-Aminocyclopropyl)carbonyl]azetidin-3-yl}methyl)-5-[2-methyl-4-(1-methyl-1H-indazol-5-yl)phenyl]-4,6-diazaspiro[2.4]hept-4-en-7-one], for which the IC50 in test [1] is 0.525 µM; in test [2], 0.263 µM; in test [3], over 10 µM. Further, in test [2], the inhibition at 10 µM was found to be 97%.

Consider `Cn1cc(CCO)c2cc(-c3ccc(C4=NC5(CC5)C(=O)N4CC4CN(C(=O)C5CC5)C4)c(F)c3)ccc21` [compound 568, 6-{[1-(Cyclopropylcarbonyl)azetidin-3-yl]methyl}-5-{2-fluoro-4-[3-(2-hydroxyethyl)-1-methyl-1H-indol-5-yl]phenyl}-4,6-diazaspiro[2.4]hept-4-en-7-one], for which the figures for the IC50 in test [1], in test [2] and in test [3] were 0.0468 µM, 0.129 µM and 2.4 µM, respectively. The inhibition at 10 µM in test [2] was 89%.

For `Cc1cc2cc(-c3ccc(C4=NC5(CC5)C(=O)N4CC4CN(C(=O)C5CC5)C4)c(F)c3)ccc2n1C` [compound 569, 6-{[1-(Cyclopropylcarbonyl)azetidin-3-yl]methyl}-5-[4-(1,2-dimethyl-1H-indol-5-yl)-2-fluorophenyl]-4,6-diazaspiro[2.4]hept-4-en-7-one], the results for the IC50 in test [1], in test [2] and in test [3] were 0.204 µM, 0.209 µM and 2.19 µM, respectively. Moreover, in test [2], the inhibition at 10 µM is 86%.

Take `Cc1cc(C)c2ccc(-c3ccc(C4=NC5(CC5)C(=O)N4CC4CN(C(=O)C5CC5)C4)cc3)cc2n1` [compound 570, 6-{[1-(Cyclopropylcarbonyl)azetidin-3-yl]methyl}-5-[4-(2,4-dimetrhylquinolin-7-yl)phenyl]-4,6-diazaspiro[2.4]hept-4-en-7-one]: the IC50 in test [1] was about 5.25 µM; in test [2], 4.17 µM; in test [3], over 10 µM. Also, in test [2], the inhibition at 10 µM is 65%.

On to `Cc1cc(-c2cccc(NC(=O)C3CC3)c2)ccc1C1=NC2(CC2)C(=O)N1CC1CN(C(=O)C2CC2)C1` [compound 571, N-[4′-(6-{[1-(Cyclopropylcarbonyl)azetidin-3-yl}methyl]-7-oxo-4,6-diazaspiro[2.4]hept-4-en-5-yl)-3′-methylbiphenyl-3-yl]cyclopropanecarboxamide], for which the IC50 in test [1] was 0.977 µM; in test [2], 1.38 µM; in test [3] it was over 10 µM. In addition, the inhibition at 10 µM in test [2] came to 79%.

As to `Cn1ncc2cc(-c3ccc(C4=NC5(CC5)C(=O)N4CC4CN(C(=O)C5(O)CC5)C4)c(F)c3)ccc21` [compound 572, 5-[2-Fluoro-4-(1-methyl-1H-indazol-5-yl)phenyl]-6-({1-[(1-hydroxycyclopropyl)carbonyl]azetidin-3-yl}methyl)-4,6-diazaspiro[2.4]hept-4-en-7-one], the IC50 in test [1] is 0.0525 µM; in test [2], 0.135 µM; in test [3], over 10 µM. Further, the inhibition at 10 µM in test [2] is 87%.

`Cc1cn(C)c2ccc(-c3ccc(C4=NC5(CC5)C(=O)N4CC4CN(C(=O)C5CC5)C4)c(F)c3)cc12` [compound 573, 6-{[1-(Cyclopropylcarbonyl)azetidin-3-yl]methyl}-5-[4-(1,3-dimethyl-1H-indol-5-yl)-2-fluorophenyl]-4,6-diazaspiro[2.4]hept-4-en-7-one]: the IC50 in test [1] is 0.0537 µM; in test [2] it was 0.166 µM; in test [3], 1.38 µM. Moreover, in test [2], the inhibition at 10 µM came to 88%.

Broadly, the inhibition is the drop in the measured response relative to a control, in per cent.

Values taken from patent US10077261B2, “Imidazolin-5-one derivative useful as FASN inhibitors for the treatment of cancer” (Janssen Pharmaceutica NV, priority 2012, dated 2018).
